Experiments:
HaCaT [1] = experiment: Anti-pyroptosis activity in human HaCaT cells assessed as reduction in H2O2-induced LDH production at 10 uM incubated for 6 hrs followed by H2O2 stimulation measured after 24 hrs by LDH assay relative to control; assay type: functional; parameters: scale not given: the % may be the effect or the level left; settings: time 30 hrs
HaCaT [2] = experiment: Cytoprotective activity against H2O2-induced oxidative stress in human HaCaT cells assessed as change in cellular ROS level at 1 uM incubated for 6 hrs followed by H2O2 stimulation measured after 24 hrs by DCF-DA dye based fluorescence analysis (reference value: 8.2); assay type: functional; settings: time 30 hrs
HaCaT [3] = experiment: Effect on cell cycle distribution in human HaCaT cells assessed as >4N cells at 10 uMpretreated for 6 hrs followed by H2O2 challenge for 24 hrs by propidium iodide staining based flow cytometry analysis (Rvb= 11.1%); assay type: functional; settings: dose 10 µM; time 30 hrs
Caspase-1 (Homo sapiens) [4] = target: T1, Caspase-1 (Homo sapiens) (UniProt P29466); experiment: Binding affinity to recombinant human caspase-1 assessed as association constant measured after 60 sec by SPR method
T1 sequence (whole entry): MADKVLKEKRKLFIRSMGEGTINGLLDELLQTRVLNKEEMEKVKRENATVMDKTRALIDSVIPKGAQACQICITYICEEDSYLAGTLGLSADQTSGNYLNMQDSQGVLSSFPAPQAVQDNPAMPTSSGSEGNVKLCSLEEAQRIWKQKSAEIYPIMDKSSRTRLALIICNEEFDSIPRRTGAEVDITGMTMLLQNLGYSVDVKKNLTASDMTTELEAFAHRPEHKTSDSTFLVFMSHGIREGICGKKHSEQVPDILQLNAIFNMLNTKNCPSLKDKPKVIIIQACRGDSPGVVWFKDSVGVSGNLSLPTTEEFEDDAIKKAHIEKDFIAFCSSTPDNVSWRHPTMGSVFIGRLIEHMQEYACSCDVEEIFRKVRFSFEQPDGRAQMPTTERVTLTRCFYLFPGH

HaCaT [5] = experiment: Effect on cell cycle distribution in human HaCaT cells assessed as 2N cells at 10 uM pretreated for 6 hrs followed by H2O2 challenge for 24 hrs by propidium iodide staining based flow cytometry analysis (Rvb= 17.9%); assay type: functional; settings: time 30 hrs
HaCaT [6] = experiment: Anti-pyroptosis activity in human HaCaT cells assessed as reduction in H2O2-induced LDH production at 1 uM incubated for 6 hrs followed by H2O2 stimulation measured after 24 hrs by LDH assay relative to control; assay type: functional; parameters: scale not given: the % may be the effect or the level left; settings: time 30 hrs
[7] = Inhibition of IL-1beta expression in H2O2- stimulated human HaCaT cells at 10 uM incubated for 6 hrs followed by H2O2 stimulation measured after 24 hrs by ELISA relative to control; assay type: functional; settings: time 30 hrs
[8] = Downregulation of caspase-1 mRNA expression in H2O2- stimulated human HaCaT cells at 10 uM incubated for 6 hrs by SPE based fluorescence amplification assay relative to control; assay type: functional; settings: time 30 hrs
HaCaT [9] = experiment: Antioxidant activity in human HaCaT cells assessed as reduction in mitochondria-derived ROS production by measuring mean fluorescence intensity at 10 uM preincubated for 6 hrs followed by H2O2 stimulation at 400 uM measured after 24 hrs by mitoSOX staining based flow cytometry analysis; assay type: functional; settings: time 30 hrs
HaCaT [10] = experiment: Cytoprotective activity against H2O2-induced oxidative stress in human HaCaT cells assessed as change in cellular ROS level at 10 uM incubated for 6 hrs followed by H2O2 stimulation measured after 24 hrs by DCF-DA dye based fluorescence analysis (reference value: 8.2); assay type: functional; settings: time 30 hrs
HaCaT [11] = experiment: Antioxidant activity in human HaCaT cells assessed as reduction in mean fluorescence intensity at 10 uM preincubated for 6 hrs followed by H2O2 stimulation at 600 uM measured after 24 hrs by cellROS staining based flow cytometry analysis; assay type: functional; settings: time 30 hrs
HaCaT [12] = experiment: Antioxidant activity in human HaCaT cells assessed as reduction in mean fluorescence intensity at 10 uM preincubated for 6 hrs followed by H2O2 stimulation at 400 uM measured after 24 hrs by cellROS staining based flow cytometry analysis; assay type: functional; settings: time 30 hrs
Caspase-1 (Homo sapiens) [13] = target: T1, Caspase-1 (Homo sapiens); experiment: Inhibition of caspase-1 activity in H2O2-stimulated human HaCaT cells assessed as reduction in enzyme activity at 10 uM using […] as a substrate measured after 2 hrs by colorimetric assay relative to control
HaCaT [14] = experiment: Antioxidant activity in human HaCaT cells assessed as reduction in mitochondria-derived ROS production by measuring mean fluorescence intensity at 10 uM preincubated for 6 hrs followed by H2O2 stimulation at 600 uM measured after 24 hrs by mitoSOX staining based flow cytometry analysis; assay type: functional; settings: time 30 hrs
Caspase-1 [15] = target: T2, Caspase-1 (Homo sapiens, UniProt P29466); experiment: Binding affinity to recombinant human caspase-1 assessed as dissociation constant at equilibrium measured after 30 sec by SPR method
T2 sequence (P29466 whole entry): T1 sequence (whole entry)

HaCaT [16] = experiment: Effect on cell cycle distribution in human HaCaT cells assessed as <2N cells at 10 uM pretreated for 6 hrs followed by H2O2 challenge for 24 hrs by propidium iodide staining based flow cytometry analysis (Rvb= 1.88%); assay type: functional; settings: time 30 hrs
Caspase-1 [17] = target: T2, Caspase-1; experiment: Binding affinity to recombinant human caspase-1 assessed as dissociation constant measured after 90 sec by SPR method
HaCaT [18] = experiment: Effect on cell cycle distribution in human HaCaT cells assessed as accumulation of cells in G2-M phase at 10 uM pretreated for 6 hrs followed by H2O2 challenge for 24 hrs by propidium iodide staining based flow cytometry analysis relative to control; assay type: functional; settings: time 30 hrs
HaCaT [19] = experiment: Antiapoptotic activity in human HaCaT cells assessed as reduction in apoptotic cells at 10 uM incubated for 6 hrs followed by H2O2 stimulation measured after 24 hrs by Mitotracker red/annexin V double staining based flow cytometry analysis (Rvb= 12.1%); assay type: functional; parameters: scale not given: the % may be the effect or the level left; settings: time 30 hrs
[20] = Downregulation of IL-1beta mRNA expression in H2O2- stimulated human HaCaT cells at 10 uM incubated for 6 hrs by SPE based fluorescence amplification assay relative to control; assay type: functional; settings: time 30 hrs
HaCaT [21] = experiment: Antioxidant activity in human HaCaT cells assessed as reduction in mitochondria-derived ROS production by measuring mean fluorescence intensity at 10 uM preincubated for 6 hrs followed by H2O2 stimulation at 200 uM measured after 24 hrs by mitoSOX staining based flow cytometry analysis; assay type: functional; settings: time 30 hrs
HaCaT [22] = experiment: Antioxidant activity in human HaCaT cells assessed as reduction in mean fluorescence intensity at 10 uM preincubated for 6 hrs followed by H2O2 stimulation at 200 uM measured after 24 hrs by cellROS staining based flow cytometry analysis; assay type: functional; settings: time 30 hrs
[23] = Cytotoxicity against human HaCaT cells assessed as cell viability at 1 to 10 uM incubated for 24 hrs followed by H2O2 stimulation by celltiter-glo assay relative to control; assay type: cell-based; settings: dose 1-10 µM, read-out: Activity
HaCaT [24] = experiment: Cytoprotective activity against H2O2-induced oxidative stress in human HaCaT cells assessed as increase in cell viability at 10 uM incubated for 24 hrs followed by H2O2 stimulation by celltiter-glo assay relative to control; assay type: functional
HaCaT [25] = experiment: Effect on cell cycle distribution in human HaCaT cells assessed as 4N cells at 10 uM pretreated for 6 hrs followed by H2O2 challenge for 24 hrs by propidium iodide staining based flow cytometry analysis (Rvb= 41.0%); assay type: functional; settings: time 30 hrs

With `C=C(C)[C@@H]1CCC(C)=C[C@H]1c1c(O)cc(CCCCC)cc1O` [CANNABIDIOL] the Activity (HaCaT [1]) was 23.6%, the “fold change (FC)” value (HaCaT [2]) was 3.96 and the Activity (HaCaT [3]) was 4.55%. It also gave a Ka (Caspase-1 (Homo sapiens) [4]) of 416 M⁻¹ s⁻¹, an Activity (HaCaT [5]) of 20.5% and an Activity (HaCaT [6]) of 20.7%. It also gave an inhibition at 10 µM [7] of 16.2%, an Activity [8] of 32.9% and a Flu intensity (HaCaT [9]) of 78. For the same molecule, the “fold change (FC)” value (HaCaT [10]) was 5.13, the Flu intensity (HaCaT [11]) was 171 and the Flu intensity (HaCaT [12]) was 96. It also gave an inhibition (Caspase-1 (Homo sapiens) [13]) of 15.7%, a Flu intensity (HaCaT [14]) of 73 and a Kd (Caspase-1 [15]) of 0.078 s⁻¹. It also gave an Activity (HaCaT [16]) of 1.81%, a Kd (Caspase-1 [17]) of 18.8 nM and an Activity (HaCaT [18]) of 16.7%. It also gave an Activity (HaCaT [19]) of 6.36%, an Activity [20] of 50.9% and a Flu intensity (HaCaT [21]) of 75. For the same molecule, the Flu intensity (HaCaT [22]) was 110, the viability at 24 h, up to 10 µM [23] was greater than 90% and the Activity (HaCaT [24]) was 48.6%. The Activity (HaCaT [25]) was 45.9%.

From ChEMBL document CHEMBL4840300 (J Nat Prod, 2021)
